Paper PMC7880572 (ACS Chemical Neuroscience, 2021)

biological target: T1, Aβ40 (Homo sapiens, UniProt P05067); assay: Inhibition of self-induced Aβ40 aggregation (ThT fluorescence, HFIP); format: biochemical; conditions: Aβ40 30 μM, 2 h at 25 °C, PBS 2% HFIP; mean ± SEM, n = 3; read-out: Aβ40 aggr IC50
T1 construct: samples of Aβ40 (30 μM) were coincubated for 2 h at 25 °C with test molecules; purchased EzBiolab, Carmel, IN, USA
Method: In vitro inhibition of Aβ40 aggregation was assessed following a previously reported thioflavin T (ThT) fluorescence-based method involving the use of hexafluoroisopropanol (HFIP) as aggregation enhancer. […].
In vitro inhibition assay of Aβ40 aggregation has been previously reported[41] and adapted to a 96-well plate platform.
(§1) After incubation in 96-well black, nonbinding microplates (Greiner Bio-One GmbH, Frickenhausen, Germany), thioflavin T (25 μM) was added and fluorimetric reads (ex 440, em 485 nm) were performed in a multiplate reader Infinite M1000 Pro (Tecan, Cernusco sul Naviglio, Italy). Experiments were run in triplicate. Results were expressed by statistical analysis while IC50 values were obtained by nonlinear regression using Prism software (GraphPad Prism version 5.00 for Windows, GraphPad Software, San Diego, CA, USA).

T1 sequence (P05067 672-711 limits assumed): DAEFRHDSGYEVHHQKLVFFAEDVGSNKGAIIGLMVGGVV

| SMILES | IC50 |
| --- | --- |
| O=C1c2ccccc2C(=O)c2c(NCCCc3ccccc3)cccc21 [Compound 12, 1-[(3-Phenylpropryl)amino]-9,10-anthraquinone] | 1.9 ± 0.3 µM |
| O=C1c2ccccc2C(=O)c2c(NCCn3nnc4ccccc43)cccc21 [Compound 14, 1-{[2-(1H-Benzotriazol-1-yl)ethyl]amino}-9,10-anthraquinone] | 11 ± 2 µM |

same assay, conditions: at 100 μM; Aβ40 30 μM; mean ± SEM, n = 3; read-out: Aβ40 aggr % inhibition

| SMILES | inhibition at 100 µM |
| --- | --- |
| O=C1C(Cl)=C(Nc2ccccc2)C(=O)c2ccccc21 [Compound 1] | ~60% |
| O=C1c2ccccc2C(=O)c2c(NCc3ccccc3)cccc21 [Compound 10, 1-(Benzylamino)-9,10-anthraquinone] | ~60% |
| O=C1c2ccccc2C(=O)c2c(NCCc3c[nH]c4ccccc34)cccc21 [Compound 13, 1-{[2-(1H-Indol-3-yl)ethyl]amino}-9,10-anthraquinone] | ~60% |

biological target: T2, eeAChE (AChE from electric eel) (Electrophorus electricus, UniProt O42275); assay: biochemical; conditions: at 10 μM; mean ± SEM, n = 3
T2 construct: purchased Sigma-Aldrich, Milan, Italy
T2 sequence (O42275 24-633): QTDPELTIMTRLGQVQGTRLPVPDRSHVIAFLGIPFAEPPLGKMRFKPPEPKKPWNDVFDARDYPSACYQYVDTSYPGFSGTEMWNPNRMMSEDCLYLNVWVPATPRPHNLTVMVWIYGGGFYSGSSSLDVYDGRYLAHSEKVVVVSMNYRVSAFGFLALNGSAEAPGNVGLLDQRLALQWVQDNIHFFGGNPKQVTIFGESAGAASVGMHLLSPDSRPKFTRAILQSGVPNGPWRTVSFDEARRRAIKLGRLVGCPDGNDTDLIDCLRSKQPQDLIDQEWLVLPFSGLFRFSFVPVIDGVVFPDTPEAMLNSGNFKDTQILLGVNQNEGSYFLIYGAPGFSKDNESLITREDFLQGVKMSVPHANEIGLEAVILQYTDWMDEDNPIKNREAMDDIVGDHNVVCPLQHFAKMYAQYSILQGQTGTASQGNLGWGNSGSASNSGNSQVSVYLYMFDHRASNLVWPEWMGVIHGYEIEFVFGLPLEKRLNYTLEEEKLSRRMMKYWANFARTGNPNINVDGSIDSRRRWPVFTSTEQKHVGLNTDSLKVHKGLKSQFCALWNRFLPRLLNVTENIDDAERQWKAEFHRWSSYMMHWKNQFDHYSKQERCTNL

| SMILES | inhibition at 10 µM |
| --- | --- |
| O=C1C(Cl)=C(Nc2ccccc2)C(=O)c2ccccc21 [Compound 1] | 39% |

same assay, conditions: mean ± SEM, n = 3

| SMILES | IC50 |
| --- | --- |
| O=C1c2ccccc2C(=O)c2c(NCc3ccccc3)cccc21 [Compound 10, 1-(Benzylamino)-9,10-anthraquinone] | 8.7 ± 0.5 µM |
| O=C1c2ccccc2C(=O)c2c(NCCCc3ccccc3)cccc21 [Compound 12, 1-[(3-Phenylpropryl)amino]-9,10-anthraquinone] | 7.84 ± 0.03 µM |
| O=C1c2ccccc2C(=O)c2c(NCCc3c[nH]c4ccccc34)cccc21 [Compound 13, 1-{[2-(1H-Indol-3-yl)ethyl]amino}-9,10-anthraquinone] | 1.85 ± 0.04 µM |
| O=C1c2ccccc2C(=O)c2c(NCCn3nnc4ccccc43)cccc21 [Compound 14, 1-{[2-(1H-Benzotriazol-1-yl)ethyl]amino}-9,10-anthraquinone] | 8.1 ± 0.5 µM |

biological target: T3, esBChE (BChE from equine serum) (Equus caballus, UniProt P81908); assay: biochemical; conditions: at 10 μM; mean ± SEM, n = 3
T3 construct: BChE from horse serum (13 U/mL); purchased Sigma-Aldrich, Milan, Italy; host or cells: horse serum
T3 sequence (P81908 whole entry): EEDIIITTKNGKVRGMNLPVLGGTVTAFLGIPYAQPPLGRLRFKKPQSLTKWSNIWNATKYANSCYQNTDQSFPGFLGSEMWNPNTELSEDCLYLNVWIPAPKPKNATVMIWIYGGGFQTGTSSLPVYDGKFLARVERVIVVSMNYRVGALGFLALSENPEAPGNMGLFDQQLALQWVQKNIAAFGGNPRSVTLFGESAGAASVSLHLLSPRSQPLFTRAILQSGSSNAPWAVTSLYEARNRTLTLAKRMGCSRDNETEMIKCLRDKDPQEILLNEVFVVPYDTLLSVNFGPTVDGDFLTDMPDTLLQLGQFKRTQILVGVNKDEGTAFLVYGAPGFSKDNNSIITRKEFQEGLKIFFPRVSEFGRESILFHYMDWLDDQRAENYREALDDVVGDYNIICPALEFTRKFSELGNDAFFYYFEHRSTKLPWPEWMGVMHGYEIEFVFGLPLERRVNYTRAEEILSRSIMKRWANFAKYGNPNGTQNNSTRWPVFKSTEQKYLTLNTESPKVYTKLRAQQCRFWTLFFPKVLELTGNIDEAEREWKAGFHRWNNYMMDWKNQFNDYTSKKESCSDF

| SMILES | inhibition at 10 µM |
| --- | --- |
| O=C1C(Cl)=C(Nc2ccccc2)C(=O)c2ccccc21 [Compound 1] | 8% |
| O=C1c2ccccc2C(=O)c2c(NCc3ccccc3)cccc21 [Compound 10, 1-(Benzylamino)-9,10-anthraquinone] | 24% |
| O=C1c2ccccc2C(=O)c2c(NCCc3c[nH]c4ccccc34)cccc21 [Compound 13, 1-{[2-(1H-Indol-3-yl)ethyl]amino}-9,10-anthraquinone] | 17% |

same assay, conditions: mean ± SEM, n = 3

| SMILES | IC50 |
| --- | --- |
| O=C1c2ccccc2C(=O)c2c(NCCCc3ccccc3)cccc21 [Compound 12, 1-[(3-Phenylpropryl)amino]-9,10-anthraquinone] | 8.2 ± 0.4 µM |
| O=C1c2ccccc2C(=O)c2c(NCCn3nnc4ccccc43)cccc21 [Compound 14, 1-{[2-(1H-Benzotriazol-1-yl)ethyl]amino}-9,10-anthraquinone] | 3.4 ± 0.2 µM |

biological target: T4, hMAO A (Homo sapiens, UniProt P21397); assay: MAO A inhibition (fluorimetric kynuramine assay); format: biochemical; conditions: at 10 μM; mean ± SEM, n = 3
T4 construct: purchased Sigma-Aldrich
T4 sequence (P21397 1-527): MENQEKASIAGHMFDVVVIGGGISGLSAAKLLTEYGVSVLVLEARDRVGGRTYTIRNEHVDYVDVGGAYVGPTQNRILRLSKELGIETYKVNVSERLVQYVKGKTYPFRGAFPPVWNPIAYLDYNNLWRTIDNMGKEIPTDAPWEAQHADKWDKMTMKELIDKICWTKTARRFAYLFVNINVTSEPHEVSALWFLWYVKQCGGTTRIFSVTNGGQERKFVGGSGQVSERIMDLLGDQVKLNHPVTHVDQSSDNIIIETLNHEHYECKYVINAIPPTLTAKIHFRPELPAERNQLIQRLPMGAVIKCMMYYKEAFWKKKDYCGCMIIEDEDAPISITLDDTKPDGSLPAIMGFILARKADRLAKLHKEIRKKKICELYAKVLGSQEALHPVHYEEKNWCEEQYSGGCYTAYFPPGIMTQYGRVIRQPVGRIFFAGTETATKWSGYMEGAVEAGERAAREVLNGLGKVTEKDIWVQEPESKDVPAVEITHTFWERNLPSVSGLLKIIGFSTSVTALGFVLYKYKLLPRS

| SMILES | inhibition at 10 µM |
| --- | --- |
| O=C1C(Cl)=C(Nc2ccccc2)C(=O)c2ccccc21 [Compound 1] | < 5% |
| O=C1c2ccccc2C(=O)c2c(NCCCc3ccccc3)cccc21 [Compound 12, 1-[(3-Phenylpropryl)amino]-9,10-anthraquinone] | 50% |
| O=C1c2ccccc2C(=O)c2c(NCCc3c[nH]c4ccccc34)cccc21 [Compound 13, 1-{[2-(1H-Indol-3-yl)ethyl]amino}-9,10-anthraquinone] | 25% |
| O=C1c2ccccc2C(=O)c2c(NCCn3nnc4ccccc43)cccc21 [Compound 14, 1-{[2-(1H-Benzotriazol-1-yl)ethyl]amino}-9,10-anthraquinone] | 53% |

same assay, conditions: mean ± SEM, n = 3

| SMILES | IC50 |
| --- | --- |
| O=C1c2ccccc2C(=O)c2c(NCc3ccccc3)cccc21 [Compound 10, 1-(Benzylamino)-9,10-anthraquinone] | 1.1 ± 0.3 µM |

biological target: T5, MAO B (Homo sapiens, UniProt P27338); assay: MAO B inhibition (fluorimetric kynuramine assay, inhibition kinetics); format: biochemical; conditions: at 10 μM; mean ± SEM, n = 3
T5 construct: purchased Sigma-Aldrich
T5 sequence (P27338 1-520): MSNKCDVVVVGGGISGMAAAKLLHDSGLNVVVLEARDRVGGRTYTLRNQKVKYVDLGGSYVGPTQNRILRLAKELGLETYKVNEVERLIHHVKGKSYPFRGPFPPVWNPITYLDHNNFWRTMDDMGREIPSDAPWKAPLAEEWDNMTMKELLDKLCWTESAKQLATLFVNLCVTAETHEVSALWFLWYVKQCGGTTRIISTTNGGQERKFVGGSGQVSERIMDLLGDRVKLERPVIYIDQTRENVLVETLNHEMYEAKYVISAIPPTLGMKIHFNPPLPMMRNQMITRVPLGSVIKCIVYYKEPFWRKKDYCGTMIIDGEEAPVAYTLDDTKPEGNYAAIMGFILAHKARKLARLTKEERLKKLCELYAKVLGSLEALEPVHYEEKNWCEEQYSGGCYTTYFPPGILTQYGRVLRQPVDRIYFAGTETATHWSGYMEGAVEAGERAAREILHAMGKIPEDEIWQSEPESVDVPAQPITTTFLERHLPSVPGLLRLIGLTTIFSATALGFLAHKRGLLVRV

| SMILES | inhibition at 10 µM |
| --- | --- |
| O=C1C(Cl)=C(Nc2ccccc2)C(=O)c2ccccc21 [Compound 1] | 22% |
| O=C1c2ccccc2C(=O)c2c(NCc3ccccc3)cccc21 [Compound 10, 1-(Benzylamino)-9,10-anthraquinone] | 34% |
| O=C1c2ccccc2C(=O)c2c(NCCc3c[nH]c4ccccc34)cccc21 [Compound 13, 1-{[2-(1H-Indol-3-yl)ethyl]amino}-9,10-anthraquinone] | 42% |

same assay, conditions: mean ± SEM, n = 3

| SMILES | IC50 |
| --- | --- |
| O=C1c2ccccc2C(=O)c2c(NCCCc3ccccc3)cccc21 [Compound 12, 1-[(3-Phenylpropryl)amino]-9,10-anthraquinone] | 0.24 ± 0.05 µM |
| O=C1c2ccccc2C(=O)c2c(NCCn3nnc4ccccc43)cccc21 [Compound 14, 1-{[2-(1H-Benzotriazol-1-yl)ethyl]amino}-9,10-anthraquinone] | 0.98 ± 0.14 µM |

biological target: T5, MAO B; assay: MAO B kynuramine assay in spectrophotometric mode (4-hydroxyquinoline absorbance at 316 nm), incl. time course; format: biochemical; conditions: 100 nM inhibitor; 1 h preincubation with enzyme

| SMILES | MAO B enzymatic activity in time course |
| --- | --- |
| C#CCN(C)Cc1ccccc1 [pargyline, reference compound] | completely inhibited |

same assay, conditions: 100 nM inhibitor; no preincubation

| SMILES | time until MAO B enzymatic activity came to saturation |
| --- | --- |
| C#CCN(C)Cc1ccccc1 [pargyline, reference compound] | about 1 h |

biological target: T6, Aβ42 (Homo sapiens, UniProt P05067); assay: Inhibition of Aβ42 fibrillation by ThT fluorescence assay; format: biochemical; conditions: 100 and 5 μM, Aβ42 30 μM, 37 °C, 48 h
T6 construct: purchased EzBiolab, Carmel, IN, USA
Method: Its high propensity to self-aggregate allows a fast execution of aggregation assays without the need of aggregation enhancers as for Aβ40.
Quercetin (QUR) was used as reference compound.
as §1

T6 sequence (P05067 672-713 limits assumed): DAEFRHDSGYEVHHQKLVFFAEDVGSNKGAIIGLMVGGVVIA

| SMILES | inhibition of Aβ42 aggregation (activity profile) |
| --- | --- |
| O=C1c2ccccc2C(=O)c2c(NCCCc3ccccc3)cccc21 [Compound 12, 1-[(3-Phenylpropryl)amino]-9,10-anthraquinone] | best activity profile |
| O=C1c2ccccc2C(=O)c2c(NCCn3nnc4ccccc43)cccc21 [Compound 14, 1-{[2-(1H-Benzotriazol-1-yl)ethyl]amino}-9,10-anthraquinone] | best activity profile |

system: cerebellar granule cells; assay: In vitro cytotoxicity (MTT); format: cell-based; conditions: CGCs, compound 10 μM, 48 h, mean ± SEM
Method: . […] For a more meaningful assessment of the value of the present compounds, the issue of their toxicity, in comparison to established drugs for AD, should deserve further investigation.
Cerebellar granule cells were prepared from 8-day-old Sprague Dawley rats as described previously.[66] Cells were studied from the 6th to the 12th day in vitro. The experimental procedures and care of the animals were performed in compliance with the Directive of the EU Parliament and Council of September 22, 2010 (2010/63/EU) and were approved by the Italian Ministry of Health (COD. 75F11.N.6DX) in accordance with D.M. 116/1992. All efforts were made in order to minimize animal suffering and the number of animals necessary to obtain reliable results.
[…]. Cells were maintained in 5% CO2 at 37 °C. The cell viability was assessed by the MTT assay 48 h after the treatment. […]. The survival rates of viable cells were calculated by comparing the optical absorbance of treated samples with that of the untreated controls. All experiments were repeated at least three times independently, and data are expressed as the mean ± SEM.

| SMILES | cell viability vs control (%) |
| --- | --- |
| O=C1c2ccccc2C(=O)c2c(NCCCc3ccccc3)cccc21 [Compound 12, 1-[(3-Phenylpropryl)amino]-9,10-anthraquinone] | 77 ± 12% |

system: not given; assay: not given; conditions: based on the PAMPA-BBB classification range from Di et al.

| SMILES | CNS prediction |
| --- | --- |
| O=C1c2ccccc2C(=O)c2c(NCCCc3ccccc3)cccc21 [Compound 12, 1-[(3-Phenylpropryl)amino]-9,10-anthraquinone] | CNS+ |

system: not listed separately; assay: in vitro; conditions: PAMPA, pH 7.4

| SMILES | Papp at 16 h |
| --- | --- |
| O=C1c2ccccc2C(=O)c2c(NCCCc3ccccc3)cccc21 [Compound 12, 1-[(3-Phenylpropryl)amino]-9,10-anthraquinone] | 22 ± 1.9 ×10⁻⁶ cm/s |
